Test results published in publication PMC6539144, “Discovery of Novel Potential Reversible Peptidyl Arginine Deiminase Inhibitor” (International Journal of Molecular Sciences, 2019).
Where two headings read alike, the source gives them in different places.

How the values were obtained:
human neutrophils [1] = test: NETs imaging assay (DNA and histone H2A immunostaining); assay type: cell-based; settings: 100 µM, PMA stimulation
Experimental: For the NETs imaging assays, neutrophils were allowed to adhere to poly-L-lysine coated coverslips (5 × 10^5 cells/coverslip) for 30 min at 37 °C, 5% CO2. Neutrophils were then treated for 1 h with DMSO alone, or 100 μM of compound 4 or Cl-amidine. Neutrophils were then stimulated with 25 nM PMA or left unstimulated as controls for 3 h at 37 °C, 5% CO2. Neutrophils were fixed with 3.7% formaldehyde for 10 min, washed three times with PBS and blocked (5% FBS, 1% BSA, 0.05% Tween, 2 mM EDTA in PBS) for 1 h. Cells were washed and treated with 0.1% saponin (Sigma-Aldrich) in PBS for 30 min. Cells were stained first with rabbit polyclonal anti-histone H2A antibody (Abcam), and then with allophycocyanin (APC) F(ab’)2 goat anti-rabbit antibody (Jackson ImmunoResearch Lab Inc., Ely, UK) in the presence of 3% BSA in 0.1% saponin. Cells were counterstained with 1 µg/mL Hoechst 33258 dye (Invitrogen). Images were captured with a fluorescence microscope (Nikon Eclips Ti, Nikon, Konan, Tokyo).

[2] = test system: collagen-induced arthritis; settings: cited from earlier work
colitis = test system: colitis; design: method as in PMID 21415415; settings: cited from earlier work
human neutrophils [3] = test: NET assay: extracellular DNA release (PicoGreen) from PMA-stimulated neutrophils; assay type: cell-based; settings: 30 µM
Experimental: Granulocyte-enriched fractions were harvested using a lymphocyte separation medium density gradient (PAN Biotech, Aidenbach, Germany). Neutrophils and erythrocytes were separated after 30 min of incubation with 1% polyvinyl alcohol (POCH, Gliwice, Poland). Neutrophils were collected from the upper layer and after centrifugation (280× g, 10 min), the residual erythrocytes were removed by lysis in water. Cells were then resuspended in serum-free DMEM without phenol red (Gibco, Waltham, MA, USA). To measure the extracellular DNA release, neutrophils were seeded at 2 × 10^6/well in 0.01 mg/mL poly-L-lysine (Sigma-Aldrich) coated 24-well plates and centrifuged (200× g, 5 min). Neutrophils were treated for 1h with DMSO alone, or with either 30 μM or 100 μM of compound 4 or Cl-amidine. Cells were then stimulated with 25 nM PMA (phorbol 12-myristate 13-acetate) or left unstimulated as controls for 3 h at 37 °C, 5% CO2. Following stimulation, the cell medium was collected and the extracellular DNA was quantified using the Quant-iT^TM PicoGreen® dsDNA Reagent (QPG; Invitrogen, Carlsbad, CA, USA). The 1:200 dilution of QPG in TE buffer (10 mM Tris, 1 mM EDTA, pH 7.5) and 90 μL of TE buffer was added to 10 μL of the supernatant containing the extracellular DNA and fluorescence was measured with an excitation wavelength 480 nm and emission wavelength 520 nm.

GST-PAD4 [4] = molecular target: T1, GST-PAD4 (Homo sapiens, UniProt Q9UM07); test: Histone H3 citrullination assay (purified calf thymus histone H3, western blot); assay type: biochemical; settings: 50 µM, purified calf thymus histone H3, 0.5 mM DTT
T1 construct: made in house
T1 sequence (Q9UM07 whole entry): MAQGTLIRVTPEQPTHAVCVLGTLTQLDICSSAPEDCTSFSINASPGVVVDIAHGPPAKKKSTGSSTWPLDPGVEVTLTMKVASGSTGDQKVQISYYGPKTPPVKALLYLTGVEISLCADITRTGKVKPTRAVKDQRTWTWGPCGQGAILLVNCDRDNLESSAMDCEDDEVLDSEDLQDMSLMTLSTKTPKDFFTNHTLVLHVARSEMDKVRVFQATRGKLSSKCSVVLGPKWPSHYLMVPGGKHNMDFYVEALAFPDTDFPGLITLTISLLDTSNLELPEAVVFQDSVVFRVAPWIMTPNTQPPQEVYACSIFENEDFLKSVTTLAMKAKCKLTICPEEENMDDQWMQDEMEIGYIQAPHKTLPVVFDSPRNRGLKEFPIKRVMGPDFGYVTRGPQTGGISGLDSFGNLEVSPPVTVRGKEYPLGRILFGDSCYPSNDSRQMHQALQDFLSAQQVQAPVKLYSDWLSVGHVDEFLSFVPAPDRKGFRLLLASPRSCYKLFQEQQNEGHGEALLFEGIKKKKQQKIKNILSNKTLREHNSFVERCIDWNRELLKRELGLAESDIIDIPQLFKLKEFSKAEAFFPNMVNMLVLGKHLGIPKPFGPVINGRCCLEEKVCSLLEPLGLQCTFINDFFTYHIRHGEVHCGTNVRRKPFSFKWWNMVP
Experimental: A total of 50 μM of compounds 1 to 6 were pre-incubated with 1 mU of GST-PAD4 for 30 min at 37 °C in the assay buffer (100 mM Tris pH 7.5, 10 mM CaCl2, 0.5 mM DTT). After that, 5 μg of purified calf thymus histone H3 was added to the reaction mixture and incubated further for 60 min at 37 °C. Three controls were performed in the assay: a DMSO (no compound) control and a known irreversible compound (Cl-amidine) at 50 and 200 μM. The citrullination was assessed by western blot using antibodies specific to citrullinated histone H3.
The protein concentration in each sample was measured (A280nm) and normalized post-extraction. Next, histone proteins were separated in precast Novex^TM 16% Tris-Glycine 1 mm minigels (Invitrogen, Carlsbad, CA, USA). After electrophoresis, proteins were transferred into nitrocellulose membranes (0.2 μm) at 4 °C (transfer buffer: 10 mM CAPS, 20% methanol, pH 11). Membranes were blocked for 1 h at room temperature with 5% milk in TBST (1× Tris Buffered Saline, pH 8.0, with 0.1% Tween 20) and then incubated overnight at 4 °C with rabbit polyclonal anti-H3Cit antibody (Abcam, ab5103, Cambridge, UK) at a 1:1,000 dilution in the blocking solution. […] The signal was recorded with ChemiDoc image analyzer (Bio-Rad Laboratories, Hercules, CA, USA).

GST-PAD4 [5] = molecular target: T1, GST-PAD4; test: GST-PAD4 inhibitory activity in the presence of serum and synovial fluid; assay type: biochemical; settings: for Inhibitory potential on GST-PAD4 in the presence of serum / Inhibitory activity on GST-PAD4 in the presence of RA synovial fluid: 50 µM compound (Cl-amidine 50 and 200 µM); for Inhibitory potential on GST-PAD4 in the presence of serum: serum diluted 1:3, compared to in vitro conditions; for Inhibitory activity on GST-PAD4 in the presence of RA synovial fluid: synovial fluid diluted 1:3, 1 mM Dansyl-Gly-Arg
Experimental: A total of 50 μM of compounds 1 to 6 were pre-incubated with 1 mU of GST-PAD4 for 30 min at 37 °C with serum from healthy blood donors, serum or synovial fluid from patients with RA, serially diluted from 1:1.5 to 1:30 in the assay buffer (100 mM Tris pH 7.5, 10 mM CaCl2). The reaction was then initiated by the addition of 1 mM Dansyl-Gly-Arg and stopped after 1h as described above. The assay included a negative and positive control: a DMSO (no compound) control and a known irreversible compound (Cl-amidine) at 50 and 200 μM. Samples were separated by HPLC.

PAD4 = settings: cited from earlier work
GST-PAD4 [6] = molecular target: T1, GST-PAD4; test: GST-PAD4 inhibition assay (Dansyl-Gly-Arg citrullination, HPLC); assay type: biochemical; settings: for Inhibition of GST-PAD4, initial screening: 0–250 µM inhibitor, 0.25 mM Dansyl-Gly-Arg; for Ki / IC50: GST-PAD4 preincubated 30 min with compound, 0.5 mM DTT, 10 mM CaCl2, 0.25 mM Dansyl-Gly-Arg, mean ± S.D., n = 3; for Ki: assuming competitive reversible mechanism; for IC50: linear regression
Experimental: 1 mU of GST-PAD4 was used in the experiments. To optimize the concentration of the reducing agent, experiments were done using different concentrations of DTT in the assay buffer ranging from 0 to 10 mM and the final concentration for the presented results was 0.5 mM DTT. Following pre-incubation of enzyme in the assay buffer, the reaction was initiated by the addition of 0.25 mM Dansyl-Gly-Arg. The reaction was stopped after 1h (as described above), the sample was separated by HPLC and the relative activity of PAD in each sample was determined by measuring the peak area of the citrullinated Dansyl-Gly-Arg.
The equilibrium inhibition constant (Ki) and IC50 were calculated from the fit of observed PAD activity against the respective compound concentration. Data was analyzed by the built-in Morrisson equation for tight-binding inhibition and represent the mean ± SD from at least three different determinations. IC50 values were determined by the linear regression to the initial fragment of the inhibition curve and are representative of inhibitor concentration required for the 50% reduction in the product release during the reaction.

human neutrophils [7] = test: Histone H3 citrullination in neutrophils stimulated with calcium ionophore; assay type: cell-based; settings: 50 µM, 4 μM calcium ionophore stimulation
Experimental: Neutrophils were isolated from human peripheral blood collected in acid citrate dextrose (ACD-A) by first spinning blood on Lymphoprep^TM (Axis Shield, Oslo, Norway), followed by dextran sedimentation using 3% dextran density gradient and hypotonic lysis of erythrocytes. Neutrophil purity was assessed to be >90% by flow cytometry. Cells were resuspended at 2 × 10^6 cells/mL in RPMI-1640 with HEPES (Thermo Fisher Scientific, Waltham, MA, USA) supplemented with 2 mM CaCl2 and pre-treated for 30 min with DMSO alone, 50 μM of compounds 1 to 6 or with either 50 or 200 μM of Cl-amidine. Cells were then stimulated with 4 μM calcium ionophore A23187 (Sigma-Aldrich, St. Louis, MO, USA) or left unstimulated as controls for 15 min at 37 °C, 5% CO2. Following stimulation, acid extraction of histones was performed according to Shechter et al.. […] The presence of citrullination in cellular histones was analyzed by Western blot.
The protein concentration in each sample was measured (A280nm) and normalized post-extraction. […] The signal was recorded with ChemiDoc image analyzer (Bio-Rad Laboratories, Hercules, CA, USA).

HisTag-PPAD = molecular target: T2, HisTag-PPAD (Porphyromonas gingivalis, UniProt Q9RQJ2); test: HisTag-PPAD inhibition assay (Dansyl-Gly-Arg citrullination, HPLC); assay type: biochemical; settings: 0–250 µM inhibitor, 0.25 mM Dansyl-Gly-Arg
T2 construct: made in house
T2 sequence (Q9RQJ2 44-556): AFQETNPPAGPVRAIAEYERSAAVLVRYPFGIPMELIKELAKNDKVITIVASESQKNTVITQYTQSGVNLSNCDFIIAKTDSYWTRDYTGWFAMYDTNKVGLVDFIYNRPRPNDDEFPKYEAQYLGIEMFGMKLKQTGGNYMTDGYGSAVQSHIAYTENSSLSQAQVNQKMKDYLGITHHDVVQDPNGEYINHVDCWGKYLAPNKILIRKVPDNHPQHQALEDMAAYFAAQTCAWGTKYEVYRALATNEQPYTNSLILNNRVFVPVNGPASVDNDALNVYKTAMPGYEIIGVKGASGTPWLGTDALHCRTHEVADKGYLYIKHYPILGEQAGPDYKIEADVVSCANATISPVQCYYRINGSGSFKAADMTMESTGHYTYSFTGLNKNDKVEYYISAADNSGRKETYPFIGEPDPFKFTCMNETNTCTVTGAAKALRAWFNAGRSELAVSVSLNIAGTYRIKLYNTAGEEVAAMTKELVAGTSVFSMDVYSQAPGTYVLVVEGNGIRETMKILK

[8] = 50 µM compound, serum diluted 1:3, 1 mM Dansyl-Gly-Arg
[9] = PAD4-specific reversible inhibitors, read-out: IC50

N=C(CCl)NCCC[C@H](NC(=O)c1ccccc1)C(N)=O [Cl-amidine, N-α-Benzoyl-N5-(2-Chloro-1-Iminoethyl)-l-Ornithine Amide, reference compound]
NET formation visualized by DNA and histone H2A immunostaining (human neutrophils [1]): blocked the NET formation | Severity of murine collagen-induced arthritis [2]: decrease in the severity | Clinical signs and symptoms of colitis (colitis): reduce clinical signs and symptoms of colitis | Inhibition of DNA release (NETs) from PMA-stimulated neutrophils (human neutrophils [3]): inhibited this effect | Inhibition of GST-PAD4-mediated citrullination of histone H3 (western blot) (GST-PAD4 [4]): not effective | Inhibitory potential on GST-PAD4 in the presence of serum (GST-PAD4 [5]): partially losing its inhibitory potential | Inhibitory activity on GST-PAD4 in the presence of RA synovial fluid (GST-PAD4 [5]): ineffective | IC50 (PAD4; read-out: IC50): […]

Cc1ccc(/C=c2/sc3ncnn3c2=O)o1 [Compound 1]
Inhibition of GST-PAD4, initial screening (GST-PAD4 [6]): no inhibition | Inhibitory activity on GST-PAD4 in the presence of RA synovial fluid (GST-PAD4 [5]): did not show any detectable inhibitory activity | Inhibitory activity on GST-PAD4 in the presence of serum from RA patients (GST-PAD4 [5]; [8]): did not show any detectable inhibitory activity | Inhibitory activity on GST-PAD4 in the presence of serum from healthy donors (GST-PAD4 [5]; [8]): did not show any detectable inhibitory activity

Cc1ccc(/C=c2/sc3ncnn3c2=O)o1 [Compound 2]
Inhibition of GST-PAD4, initial screening (GST-PAD4 [6]): partially inhibited | Ki (GST-PAD4 [6]): 940 ± 310 nM | IC50 (GST-PAD4 [6]): 1400 ± 260 nM | Inhibitory potential on GST-PAD4 in the presence of serum (GST-PAD4 [5]): retained their inhibitory potential | Inhibition of histone H3 citrullination in neutrophils (western blot) (human neutrophils [7]): ineffective | Inhibition of HisTag-PPAD (HisTag-PPAD): no effect

FC(F)(F)c1cc(SCc2ccc(Cl)c(Cl)c2)nc2cc3c(cc12)OCO3 [Compound 4]
NET formation visualized by DNA and histone H2A immunostaining (human neutrophils [1]): blocked the NET formation | Inhibition of GST-PAD4, initial screening (GST-PAD4 [6]): partially inhibited | Ki (GST-PAD4 [6]): 1000 ± 160 nM | IC50 (GST-PAD4 [6]): 1880 ± 260 nM | Inhibition of DNA release (NETs) from PMA-stimulated neutrophils (human neutrophils [3]): limited ability to block DNA release | Inhibition of GST-PAD4-mediated citrullination of histone H3 (western blot) (GST-PAD4 [4]): significantly hampered | Inhibitory potential on GST-PAD4 in the presence of serum (GST-PAD4 [5]): retained their inhibitory potential | Inhibitory activity on GST-PAD4 in the presence of serum from RA patients (GST-PAD4 [5]; [8]): did not diminish further | Inhibition of histone H3 citrullination in neutrophils (western blot) (human neutrophils [7]): visibly limited | Inhibition of HisTag-PPAD (HisTag-PPAD): no effect

CCn1c(-c2nc3cc(C(=O)N4CCCC(N)C4)cc(OC)c3n2C)cc2cccnc21 (stereo not drawn) [GSK199]
IC50 (PAD4; [9]): 200 nM

CN(C)c1ccc(O)c2c1C[C@H]1C[C@H]3[C@H](N(C)C)C(O)=C(C(N)=O)C(=O)[C@@]3(O)C(O)=C1C2=O [minocycline]
IC50 (PAD4; reversible inhibitors): millimolar

[H]/N=C(/N)N[C@H]1[C@H](O)[C@@H](O)[C@H](O[C@@H]2O[C@@H](C)[C@](O)(C=O)[C@H]2O[C@@H]2O[C@@H](CO)[C@H](O)[C@@H](O)[C@@H]2NC)[C@@H](N/C(N)=N\[H])[C@@H]1O [streptomycin]
IC50 (PAD4; reversible inhibitors): millimolar

CC(=O)O[C@H]1C(=O)[C@@]2(C)[C@H]([C@H](OC(=O)c3ccccc3)[C@]3(O)C[C@H](OC(=O)[C@H](O)[C@@H](NC(=O)c4ccccc4)c4ccccc4)C(C)=C1C3(C)C)[C@]1(OC(C)=O)CO[C@@H]1C[C@@H]2O [taxol]
IC50 (PAD4; reversible inhibitors): millimolar
